Assay results published in US9586905B2, “Benzoazepine derivative and medical use thereof” (SANWA KAGAKU KENKYUSHO CO., LTD., priority 2012, dated 2017).

Target: T1, human V2 receptor (Homo sapiens, UniProt P30518)
T1 construct: A DNA fragment containing a human V2 receptor code region; expressed in transfected cells
Assay: cAMP production test in V2 receptor expression cell
Format: cell-based
Conditions: for EC50: human V2 receptor expression cell, 30 minutes at room temperature, HTRF cAMP kit; for Emax: maximum reaction by 8-AVP assumed to be 100%
Procedure: Pharmacological Test (1) Preparation of Human V2 Receptor Expression Cell
A DNA fragment containing a human V2 receptor code region was inserted into an expression vector of a vertebrate cell. The expression vector was genetically introduced into an animal cell to have the human V2 receptor express in the surface of the cell. Since the expression vector could express a neo gene which functions as a G418 resistance marker, it was cultured in a G418-containing medium, thereby selectively obtaining a human V2 receptor stable expression cell.
(2) cAMP Production Test in V2 Receptor Expression Cell
The human V2 receptor expression cell, which was prepared in the above described method, was recovered and resuspended into an incubation buffer (F-12 medium, 20 mM HEPES), and 5 μl of the cell was then divided into a 384-well plate with a density of 15,000 cells/well. 5 μl of a compound solution or an 8-AVP ((Arg^8)-vasopressin) solution, which was diluted with an assay buffer (F-12 medium, 20 mM HEPES, 1 mM IBMX), (total 10 μl/well) was added to each well (final concentration: 15,000 cells/well, 500 μM IBMX, 1% dimethyl sulfoxide). After incubation at room temperature for 30 minutes, a cAMP production amount was measured using a commercially available HTRF cAMP kit (Cisbio Inc.) according to the described protocol. Excel Fit was used in order to find EC50 and Emax values of the test compound.

T1 sequence (P30518 whole entry, the tested form may be a part): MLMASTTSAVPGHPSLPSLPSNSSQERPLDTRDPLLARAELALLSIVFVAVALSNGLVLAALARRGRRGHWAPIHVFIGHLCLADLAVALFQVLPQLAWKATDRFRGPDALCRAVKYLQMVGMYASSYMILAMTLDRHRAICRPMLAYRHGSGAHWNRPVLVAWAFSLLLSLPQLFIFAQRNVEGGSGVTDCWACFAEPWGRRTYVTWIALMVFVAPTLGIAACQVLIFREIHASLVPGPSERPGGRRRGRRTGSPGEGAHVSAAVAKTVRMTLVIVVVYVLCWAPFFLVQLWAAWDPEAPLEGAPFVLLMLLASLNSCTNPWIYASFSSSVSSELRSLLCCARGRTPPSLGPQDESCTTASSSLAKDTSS

COC(=O)C1(C)CCN(C(=O)c2ccc(N3CCCC3)cc2Cl)c2ccccc2C1 (racemic) [Example 31]
EC50: 7.9 nM | Emax: 102%

CCCOc1ccc(C(=O)N2CCC(C)(C(=O)OC)Cc3ccccc32)c(Cl)c1 (racemic) [Example 32]
EC50: 9.1 nM | Emax: 104%

COC(=O)C1(C)CCN(C(=O)c2ccc(-c3ncco3)cc2Cl)c2ccccc2C1 (racemic) [Example 33]
EC50: 20 nM | Emax: 96%

COC(=O)C1(C)CCN(C(=O)c2ccc(-n3cccn3)cc2Cl)c2ccccc2C1 (racemic) [Example 34]
EC50: 9.8 nM | Emax: 98%

COC(=O)C1Cc2ccccc2N(C(=O)c2ccc(N3CCCC3)cc2Cl)CC1C (racemic) [Example 42]
EC50: 0.8 nM | Emax: 103%

COC(=O)C1(F)Cc2ccccc2N(C(=O)c2ccc(N3CCCC3)cc2Cl)CC1C (racemic) [Example 43]
EC50: 0.1 nM | Emax: 102%

CC1(C(=O)O)CCN(C(=O)c2ccc(N3CCCC3)cc2Cl)c2ccccc2C1 (racemic) [Example 49, 1-[2-chloro-4-(pyrrolidine-1-yl)benzoyl)-4-methyl-2,3,4,5-tetrahydro-1H-benzo[b]azepine-4-carboxylic acid]
EC50: 0.5 nM | Emax: 102%

CCCOc1ccc(C(=O)N2CCC(C)(C(=O)O)Cc3ccccc32)c(Cl)c1 (racemic) [Example 50, 1-(2-chloro-4-propoxybenzoyl)-4-methyl-2,3,4,5-tetrahydro-1H-benzo[b]azepine-4-carboxylic acid]
EC50: 0.9 nM | Emax: 100%

CC1(C(=O)O)CCN(C(=O)c2ccc(-c3ncco3)cc2Cl)c2ccccc2C1 (racemic) [Example 51, 1-[2-chloro-4-(oxazol-2-yl)benzoyl]-4-methyl-2,3,4,5-tetrahydro-1H-benzo[b]azepine-4-carboxylic acid]
EC50: 6 nM | Emax: 73%

CC1(C(=O)O)CCN(C(=O)c2ccc(-n3cccn3)cc2Cl)c2ccccc2C1 (racemic) [Example 52, 1-[2-chloro-4-(1H-pyrazol-1-yl)benzoyl]-4-methyl-2,3,4,5-tetrahydro-1H-benzo[b]azepine-4-carboxylic acid]
EC50: 3.9 nM | Emax: 85%

Cc1ccn(-c2ccc(C(=O)N3C[C@@H](C)C(C)(C(=O)O)Cc4ccccc43)c(C)c2)n1 (mixture of isomers) [Example 55, (3S)-3,4-dimethyl-1-[2-methyl-4-(3-methyl-1H-pyrazol-1-yl)benzoyl]-2,3,4,5-tetrahydro-1H-benzo[b]azepine-4-carboxylic acid]
EC50: 0.2 nM | Emax: 101%

C[C@@H]1CN(C(=O)c2ccc(N3CCCC3)cc2Cl)c2ccccc2CC1C(=O)O (mixture of isomers) [Example 56, (3S)-1-[2-chloro-4-(pyrrolidine-1-yl)benzoyl]-3-methyl-2,3,4,5-tetrahydro-1H-benzo[b]azepine-4-carboxylic acid]
EC50: 0.1 nM | Emax: 102%

C[C@@H]1CN(C(=O)c2ccc(N3CCCC3)cc2Cl)c2ccccc2CC1(F)C(=O)O (mixture of isomers) [Example 57, (3R)-1-[2-chloro-4-(pyrrolidine-1-yl)benzoyl]-4-fluoro-3-methyl-2,3,4,5-tetrahydro-1H-benzo[b]azepine-4-carboxylic acid]
EC50: 0.2 nM | Emax: 102%

Cc1cc(N2CCC(C)C2)ccc1C(=O)N1CCC(C)(C(=O)NCC(N)=O)Cc2ccccc21 (racemic) [Example 69]
EC50: 0.53 nM | Emax: 101%

CC(C)C(NC(=O)C1(C)CCN(C(=O)c2ccc(OCCCF)cc2Cl)c2ccccc2C1)C(N)=O (racemic) [Example 73]
EC50: 1.9 nM | Emax: 100%

Cc1nnc(NC(=O)C2(C)CCN(C(=O)c3ccc(N4CCCC4)cc3Cl)c3ccccc3C2)o1 (racemic) [Example 79]
EC50: 0.9 nM | Emax: 100%

CCNC(=O)CNC(=O)C1(C)CCN(C(=O)c2ccc(N3CCCC3)cc2Cl)c2ccccc2C1 (racemic) [Example 80]
EC50: 2.8 nM | Emax: 101%

CCN(CC)C(=O)CNC(=O)C1(C)CCN(C(=O)c2ccc(N3CCCC3)cc2Cl)c2ccccc2C1 (racemic) [Example 81]
EC50: 6.6 nM | Emax: 100%

CC1(C(=O)NCc2nnco2)CCN(C(=O)c2ccc(N3CCCC3)cc2Cl)c2ccccc2C1 (racemic) [Example 82]
EC50: 1.1 nM | Emax: 101%

CCCOc1ccc(C(=O)N2CCC(C)(C(=O)NC(C)CO)Cc3ccccc32)c(Cl)c1 (racemic) [Example 83]
EC50: 3.4 nM | Emax: 100%

CCCOc1ccc(C(=O)N2CCC(C)(C(=O)NCC(N)=O)Cc3ccccc32)c(Cl)c1 (racemic) [Example 84]
EC50: 2.5 nM | Emax: 100%

CC(CO)NC(=O)C1(C)CCN(C(=O)c2ccc(-c3ncco3)cc2Cl)c2ccccc2C1 (racemic) [Example 85]
EC50: 15 nM | Emax: 94%

CC1(C(=O)NCC(N)=O)CCN(C(=O)c2ccc(-c3ncco3)cc2Cl)c2ccccc2C1 (racemic) [Example 86]
EC50: 17 nM | Emax: 88%

CC(CO)NC(=O)C1(C)CCN(C(=O)c2ccc(-n3cccn3)cc2Cl)c2ccccc2C1 (racemic) [Example 87]
EC50: 9.5 nM | Emax: 97%

CC1(C(=O)NCC(N)=O)CCN(C(=O)c2ccc(-n3cccn3)cc2Cl)c2ccccc2C1 (racemic) [Example 88]
EC50: 8.1 nM | Emax: 93%

Cc1cc(N2CCC(C)C2)ccc1C(=O)N1CCC(F)(C(N)=O)Cc2ccccc21 (racemic) [Example 94]
EC50: 0.41 nM | Emax: 101%

Cc1cc(N2CCC(C)C2)ccc1C(=O)N1CCC(F)(C(=O)NCC(N)=O)Cc2ccccc21 (racemic) [Example 95]
EC50: 0.99 nM | Emax: 102%

Cc1ccn(-c2ccc(C(=O)N3CC(C)C(C)(C(=O)NCC(N)=O)Cc4ccccc43)c(C)c2)n1 (racemic) [Example 97]
EC50: 0.56 nM | Emax: 102%

CC(CO)NC(=O)C1Cc2ccccc2N(C(=O)c2ccc(N3CCCC3)cc2Cl)CC1C (racemic) [Example 98]
EC50: 1 nM | Emax: 101%

CC1CN(C(=O)c2ccc(N3CCCC3)cc2Cl)c2ccccc2CC1C(=O)NCC(N)=O (racemic) [Example 99]
EC50: 0.4 nM | Emax: 102%

CC(CO)NC(=O)C1(F)Cc2ccccc2N(C(=O)c2ccc(N3CCCC3)cc2Cl)CC1C (racemic) [Example 100]
EC50: 3 nM | Emax: 100%

CC1CN(C(=O)c2ccc(N3CCCC3)cc2Cl)c2ccccc2CC1(F)C(=O)NCC(N)=O (racemic) [Example 101]
EC50: 1.1 nM | Emax: 102%

COC(=O)C1(C)CCN(C(=O)c2ccc(-n3ccc(C)n3)cc2C(F)(F)F)c2ccccc2C1 (single isomer, unassigned) [Example 35]
EC50: 1.4 nM | Emax: 102%

COC(=O)C1(F)CCN(C(=O)c2ccc(N3CCCC3)cc2C)c2ccccc2C1 (single isomer, unassigned) [Example 38]
EC50: 0.06 nM | Emax: 101%

Cc1cc(N2CCCC2)ccc1C(=O)N1CCC(C)(C(=O)O)Cc2ccccc21 (single isomer, unassigned) [Example 45, 4-methyl-1-[2-methyl-4-(pyrrolidine-1-yl)benzoyl]-2,3,4,5-tetrahydro-1H-benzo[b]azepine-4-carboxylic acid]
EC50: 0.34 nM | Emax: 102%
